Assay results as given in PMC12326976 (Antimicrobial Agents and Chemotherapy, 2025).
Peptide text beside a SMILES is read from it.

How the values were obtained:
H1N1 virus [1] = assay: Plaque reduction assay, H1N1 in MDCK cells; assay type: cell-based, influenza A/Hong Kong/415742/2009 (H1N1); details: H30 in 20% PBS compared to PBS, plaque assay, Fig. S1
Description: The antiviral activity of peptides was measured by plaque reduction assay. Briefly, peptides were dissolved in PBS or 20% PBS. Peptides (0.2-25.0 µg mL^−1) were premixed with H1N1 virus at room temperature. After 30 min of incubation, the peptide-virus mixture was transferred to MDCK cells for infection at 37°C. At 1 hpi, infectious media were removed, and then 1% low melting agar was added to cells. Cells were fixed using 4% formalin at 2–3 dpi. […] (0.1%) was added to cells for cell staining to count viral plaques.

rhinovirus A1 = assay type: cell-based
H1N1 virus [2] = assay type: cell-based, influenza H1N1 virus

Row | Compound | antiviral activity against H1N1 in low salt (H1N1 virus [1]) | antiviral activity against rhinovirus A1 in low salt (rhinovirus A1) | H1N1 viral release, supernatant virus at 8 hpi (H1N1 virus [2])
1 | CC[C@H](C)[C@H](NC(=O)[C@H](C)NC(=O)CN)C(=O)N[C@@H](CS)C(=O)N[C@@H](Cc1c[nH]cn1)C(=O)N1CCC[C@H]1C(=O)N[C@H](C(=O)N[C@@H](Cc1ccccc1)C(=O)N[C@@H](CS)C(=O)N1CCC[C@H]1C(=O)N[C@@H](CCCNC(=N)N)C(=O)N[C@@H](CCCNC(=N)N)C(=O)N[C@@H](Cc1ccc(O)cc1)C(=O)N[C@@H](CCCCN)C(=O)N[C@@H](CCC(N)=O)C(=O)N[C@H](C(=O)NCC(=O)N[C@H](C(=O)N[C@@H](CS)C(=O)NCC(=O)N[C@@H](CC(C)C)C(=O)N1CCC[C@H]1C(=O)NCC(=O)N[C@H](C(=O)N[C@@H](CCCCN)C(=O)N[C@@H](CS)C(=O)N[C@@H](CS)C(=O)N[C@@H](CCCCN)C(=O)N[C@@H](CCCCN)C(=O)N1CCC[C@H]1C(=O)O)[C@@H](C)O)[C@@H](C)O)[C@@H](C)CC)C(C)C [H30] (H-GAICHPVFCPRRYKQIGTCGLPGTKCCKKP-OH; N-terminus and C-terminus assumed) | could show antiviral activity in the low salt condition of 20% phosphate-buffered saline | could show more effective antiviral activity in low salt conditions | –
2 | CC(=O)N[C@H]1[C@H]([C@H](O)[C@H](O)CO)OC(C(=O)O)=C[C@@H]1N=C(N)N [zanamivir, reference compound] | – | – | significantly inhibited H1N1 viral release from cells
